Assay results reported in US11241402B2, “Methods of treating liver fibrosis by administering 3-bromopyruvate” (The Johns Hopkins University, priority 2015, dated 2022).
“Also recorded” adds a separate entry of the source.

Assays:
[1] = tested on: human primary hepatocytes; experiment: Morphology and cell viability of human primary hepatocytes at the metronomic dose; assay type: cell-based
Protocol: (§1) isolated and cultured as described previously (Anania et al., 1996). Human primary hepatocytes were obtained from Invitrogen and cultured in William's medium (without phenol red) along with plating and maintenance supplements.
(§2) To analyze the effect of 3-BrPA on activated-LX-2 cells, the principle of metronomic therapy, a repeated but low, nonlethal dose of 3-BrPA ([…]) was adopted. A known number of cells were plated in 6-well plates, 10 cm petri dishes or chamber slides as required and the culture media was replaced with fresh culture media containing the drug(s) on alternative days. The cells were treated for a period of 13 days for immunofluorescence studies and 6 days for all other studies including biochemical analysis. Monotherapy involved treating the cells with 3-BrPA alone or AICAR (0.5 mM) in DMEM with 2.5% FBS. The concentration of AICAR was chosen based on the prior reports (Lim et al., 2012). Combination therapy involved using half of the dose used for the monotherapy of AICAR and 3-BrPA.

[2] = tested on: activated LX-2 cells; experiment: Energy metabolism markers (immunofluorescence, immunoblot, lactate secretion); assay type: cell-based, human; conditions: aLX-2 cells
Protocol: as §2
LX-2 cells were grown in chamber slides in the same media used for culture. They were fixed with 4% formaldehyde for 10 minutes, rapidly rehydrated with Phosphate-buffered saline (PBS) and permeabilized with a 0.20% Triton X-100 solution in PBS for imaging of MCT-1, MCT-4 and ATPSE. The cells were incubated with primary antibodies in PBS for 1 hour at room temperature in a humidified chamber. They were then washed and incubated at room temperature with secondary antibody labeled with Texas Red
For western blotting, control and treated cells were washed in PBS, lysed in RIPA lysis buffer (Sigma-Aldrich) with a protease inhibitor cocktail and a phosphatase inhibitor cocktails (both from Sigma-Aldrich) at 4° C. using a dounce homogenizer. The lysates were centrifuged at 12,000×g for 15 min at 4° C. to remove any cell debris. The clear supernatants were collected and the protein concentrations were analyzed using a 2-D Quant protein assay Kit (GE Healthcare) as described (Ganapathy-Kanniappan et al., 2009a). In brief, protein samples were resolved on a 4-12% Bis-Tris gel by electrophoresis with MOPS buffer or via 12% Bis-Tris gel electrophoresis with MES running buffer (for low molecular weight targets) and blotted onto PVDF membranes (BioRad, Hercules, Calif., USA) followed by immunoblotting with specific antibodies. Immune complexes were visualized by ECL-detection kit (GE Health Care).

[3] = tested on: activated LX-2 cells; experiment: Immunofluorescence / immunoblot of profibrogenic markers (α-SMA, CK-18); assay type: cell-based, human; conditions: aLX-2 cells
Protocol: as §2
LX-2 cells were grown in chamber slides in the same media used for culture. […]
For western blotting, control and treated cells were washed in PBS, lysed in RIPA lysis buffer (Sigma-Aldrich) with a protease inhibitor cocktail and a phosphatase inhibitor cocktails (both from Sigma-Aldrich) at 4° C. using a dounce homogenizer. […] The clear supernatants were collected and the protein concentrations were analyzed using a 2-D Quant protein assay Kit (GE Healthcare) as described (Ganapathy-Kanniappan et al., 2009a). […]

[4] = tested on: activated LX-2 cells; experiment: Gelatin zymography for MMP activity in conditioned medium, verified by immunoblot; assay type: cell-based, human; conditions: aLX-2 cells, zymogram and immunoblots
Protocol: as §2
The level of MMP activity in the conditioned medium of control and treated LX-2 cells and/or rat HSCs was quantified by gelatin zymography. In brief, upon the completion of drug treatment protocol, media from both control and treated cells were removed, cells were rinsed with PBS and replaced with serum-free DMEM media and cultured overnight at 37° C. prior to the collection of media containing secreted proteins for further analysis. […]

[5] = tested on: mouse hepatocytes
[6] = tested on: activated LX-2 cells; experiment: Collagen staining (trichrome) and collagen mRNA by qRT-PCR; assay type: cell-based, human; conditions: aLX-2 cells
Protocol: Gene expression analysis was performed by using qRT-PCR with a sequence detection system (ABI 7900HT; Applied Biosystems, Bedford, Mass., USA). The total RNA was extracted and the cDNA thus synthesized were subjected to qRT-PCR analysis using SYBR Green PCR Kit (Applied Biosystems) for genes associated with invasiveness and motility like Vimentin (VIM), Cadherin-12 (CDH12), Snail (SNAI1), Transgelin (TGN) (31-33) and TaqMan PCR Kit for Coll1α (Mm 00801666_g1). The primers used for respective gene amplification were synthesized by RealTimePrimers.com (Elkins Park, Pa., USA) or Life Technologies (Coll1α): […]
Tissue sections were deparaffinized in xylene followed by rehydration through graded series of alcohol followed by staining for collagen using Masson's Trichrome stain (Sigma Aldrich, St. Louis, Mo.) or Sirius Red stain (PolySciences. Inc Warrington, Pa.). For in vitro studies, the LX-2 cells were grown in chamber slides containing appropriate growth medium. They were fixed with 4% formaldehyde for 10 minutes, rapidly rehydrated with Phosphate-buffered saline (PBS), following which, the staining was performed.

[7] = tested on: rat hepatic stellate cells; experiment: Fibrotic markers in rat hepatic stellate cells (confocal α-SMA, MMP-9 immunoblot); assay type: cell-based
Source text: as §1
The level of MMP activity in the conditioned medium of control and treated LX-2 cells and/or rat HSCs was quantified by gelatin zymography. In brief, upon the completion of drug treatment protocol, media from both control and treated cells were removed, cells were rinsed with PBS and replaced with serum-free DMEM media and cultured overnight at 37° C. prior to the collection of media containing secreted proteins for further analysis. The media thus collected were concentrated using a 3000 Da centrifugal filter (Amicon Inc., Pineville, N.C., USA) at 2500 rpm for 30 minutes at 4° C. and then stored at −80° C. until further analysis. Protein (˜10 μg) samples from the conditioned media of control and treated cells were subjected to zymography as described (Kunjithapatham et al., 2014). The MMP activity was visualized as clear bands. The identity of the MMP associated with zymogram signal (activity) was verified by immunoblot analysis.

[8] = tested on: activated LX-2 cells; experiment: Metronomic therapy of activated-LX-2 cells: morphology / phenotype; assay type: cell-based, human; conditions: for change in morphology / phenotype of aLX-2 cells: monotherapy, metronomic: 3-BrPA 25 μM or AICAR 0.5 mM
Source text: LX-2, a human stellate cell line, was a gift of Dr. Scott L. Friedman from the Mount Sinai School of Medicine (New York, N.Y., USA). The LX-2 cells when cultured on plastic are active in fibrogenesis (Gaca et al., 2003), and these activated LX-2 cells were used in most experiments. De-activated (quiescent) LX-2 cells prepared by culturing the LX-2 cells on Matrigel (Gaca et al., 2003; Sohara et al., 2002; Troeger et al., 2012) were used as controls. The activated and de-activated LX-2 cells were then cultured in Dulbecco's Modified Eagle's Medium (DMEM) containing 10% FBS, 0.1% antibiotic (Penicillin-Streptomycin) and 0.1% Fungizone on plastic as described previously (Tang et al., 2003). Rat hepatic stellate cells were
as §2

[9] = tested on: activated-LX-2 cells; experiment: Determination of nontoxic maximum tolerated dose (cell viability, Trypan-blue exclusion or intracellular ATP); assay type: cell-based, human; conditions: maximum dose allowing more than 50% survival; 5-50 μM tested for 24, 48 and 72 hours
Protocol: To determine the nonlethal, maximum tolerated dose (MTD) of 3-BrPA for activated-LX-2 cells, the cell viability was assessed using either Trypan-blue exclusion or quantification of intracellular ATP level. The later was performed using the Cell-Titer Glo Assay kit (Promega Corp., Madison, Wis.) and the FLUOstar Omega plate reader (BMG Labtech, UK). In brief, cells plated in 96-well flatbottomed opaque plates were treated with different concentrations of 3-BrPA (5 μM, 10 μM, 25 μM and 50 μM) for 24, 48 and 72 hours followed by the quantification of intracellular ATP. The maximum dose of 3-BrPA that allowed more than 50% survival (a concentration <IC50) was selected for further experiments.

Structure (SMILES)	sensitivity / cell viability / toxicity, human primary hepatocytes ([1]; 3-BrPA 25 μM, in vitro)	morphological change of human primary hepatocytes ([1]; same metronomic dose (25 μM))	expression level of lactate transporter MCT-4 [2]	expression of ATPSE (F1-F0 ATPase) [2]	expression of MCT-1 [2]	level of lactate secretion [2]	expression level of lactate dehydrogenase (LDH) ([2]; immunoblot)	level of CK-18 ([3]; immunofluorescence)	level of α-SMA ([3]; immunofluorescence and immunoblot)	secretion of MMPs (MMP-2, MMP-9) [4]	toxicity to mouse hepatocytes [5]	α1 (I) collagen mRNA [6]	collagen (trichrome staining) ([6]; text says liver collagen)	α-SMA in rat hepatic stellate cells ([7]; confocal microscopic images)	secretion of MMP-9 in rat hepatic stellate cells ([7]; immunoblot)	stability of phenotypic changes after withdrawal of the drug ([8]; aLX-2 cells, 6 days post-treatment)	change in morphology of aLX-2 cells in the presence of AICAR ([8]; combination of 3-BrPA and AICAR, half of the monotherapy doses)	change in morphology / phenotype of aLX-2 cells [8]	MTD (nonlethal, maximum tolerated dose) in aLX-2 cells [9] [µM]
O=C(O)C(=O)CBr [3-BrPA, 3-bromopyruvate]	not sensitive; also recorded: not toxic; also recorded: remained unaffected	did not under go any morphological change	increased	significantly downregulated	unaffected	increased	increased	prominent decrease	reduced	elevated	not toxic	decreased	decreased	decrease	increase	stable, even after withdrawal of the drug	promoted the changes even in the presence of AICAR	induced changes in phenotype including an elongated, spindle-shaped morphology	25
NC(=O)c1ncn([C@@H]2O[C@H](CO)[C@@H](O)[C@H]2O)c1N [AICAR, reference compound]																		did not induce any change in morphology	
